Laboratory results: patent US20230293630A1, “Coronavirus T Cell Epitopes and Uses Thereof” (priority 2020, published 2023)
Read-outs that look alike come from different tables or passages of the source.

System: SARS-CoV-2-specific CD4+ T cells (OX40+CD137+) in PBMC
Type: cell-based, human
[1] = CD4+ T cell epitopes identified by AIM assay, share of donors responding
[2] = CD4+ T cell epitopes identified by AIM assay, sum of response per responding donor
[3] = CD4+ T cell epitopes identified by AIM assay, total response
[4] = CD4+ T cell epitopes identified by AIM assay, percent of tested donors responding
[5] = CD4+ T cell epitopes identified by AIM assay, total response summed over donors

Row | Sequence | Frequency of response (%) [1] [%] | Magnitude by # of responding donors [2] | Sum of response [3] | Frequency of response (%) [4] [%] | Sum of response [5] | Frequency of response (%) | Magnitude by # of responding donors | Sum of response
1 | EELKKLLEQWNLVIG | 13 | 223 | 446 | – | – | – | – | –
2 | PDLNGDVVAIDYKHY | 15 | 215 | 430 | – | – | – | – | –
3 | TITSGWTFGAGAALQ | 9 | 164 | 164 | – | – | – | – | –
4 | TQAFGRRGPEQTQGN | 8 | 151 | 151 | – | – | – | – | –
5 | STECSNLLLQYGSFC | 8 | 314 | 314 | – | – | – | – | –
6 | VTKNSKVQIGEYTFE | 8 | 118 | 118 | – | – | – | – | –
7 | KLNDLCFTNVYADSF | 8 | 130 | 130 | – | – | – | – | –
8 | KEITVATSRTLSYYK | 54 | 516 | 3615 | – | – | – | – | –
9 | NLVIGFLFLTWICLL | 7 | 261 | 261 | – | – | – | – | –
10 | ARDLICAQKFNGLTV | 8 | 232 | 232 | – | – | – | – | –
11 | SIAIPTNFTISVTTE | 8 | 274 | 274 | – | – | – | – | –
12 | IGNYKLNTDHSSSSD | 15 | 134 | 267 | – | – | – | – | –
13 | LIRQGTDYKHWPQIA | 15 | 216 | 431 | – | – | – | – | –
14 | FPRGQGVPINTNSSP | 8 | 397 | 397 | – | – | – | – | –
15 | VTQNVLYENQKLIAN | 14 | 353 | 705 | – | – | – | – | –
16 | CVDEAGSKSPIQYID | 9 | 327 | 327 | – | – | – | – | –
17 | AGFIKQYGDCLGDIA | 25 | 817 | 2450 | – | – | – | – | –
18 | TNCYDYCIPYNSVTS | 7 | 402 | 402 | – | – | – | – | –
19 | AVITREVGFVVPGLP | 9 | 682 | 682 | – | – | – | – | –
20 | VNLTTRTQLPPAYTN | 8 | 170 | 170 | – | – | – | – | –
21 | YVVDDPCPIHFYSKW | 36 | 872 | 3488 | – | – | – | – | –
22 | SVLHSTQDLFLPFFS | 15 | 305 | 609 | – | – | – | – | –
23 | GAVILRGHLRIAGHH | 8 | 512 | 512 | – | – | – | – | –
24 | KLLKSIAATRGATVV [SEQ ID NO 258] | – | 230 | – | 6 | 230 | – | – | –
25 | QELGKYEQYIKWPWY | 8 | 768 | 768 | – | – | – | – | –
26 | IKDLPKEITVATSRT | 23 | 258 | 774 | – | – | – | – | –

Row | Sequence | Frequency of response (%) [1] [%] | Magnitude by # of responding donors [2] | Sum of response [3] | Frequency of response (%) [4] [%] | Sum of response [5] | Frequency of response (%) | Magnitude by # of responding donors | Sum of response
27 | SFNPETNILLNVPLH | 8 | 123 | 123 | – | – | – | – | –
28 | FKIYSKHTPINLVRD | 18 | 484 | 967 | – | – | – | – | –
29 | RCSFYEDFLEYHDVR | – | – | – | – | – | 36 | 174 | 696
30 | LPYGANKDGIIWVAT | 14 | 418 | 835 | – | – | – | – | –
31 | VVLSFELLHAPATVC | 7 | 317 | 317 | – | – | – | – | –
32 | WPQIAQFAPSASAFF | 33 | 376 | 1503 | – | – | – | – | –
33 | RFYFYTSKTTVASLI | 8 | 126 | 126 | – | – | – | – | –
34 | APHGVVFLHVTYVPA | – | 293 | – | 7 | 293 | – | – | –
35 | QRNFYEPQIITTDNT | 7 | 302 | 302 | – | – | – | – | –
36 | SALEPLVDLPIGINI | 9 | 167 | 167 | – | – | – | – | –
37 | IGINITRFQTLLALH | – | 177 | – | 9 | 177 | – | – | –
38 | CTFEYVSQPFLMDLE | – | 619 | – | 64 | 4332 | – | – | –
39 | TTVAAFHQECSLQSC | 18 | 1008 | 2016 | – | – | – | – | –
40 | IWVATEGALNTPKDH | 7 | 200 | 200 | – | – | – | – | –
41 | TPSFKKGAKLLHKPI | 8 | 103 | 103 | – | – | – | – | –
42 | LLLLDRLNQLESKMS [SEQ ID NO 247] | 21 | 581 | 1742 | – | – | – | – | –
43 | LPQGFSALEPLVDLP | 18 | 418 | 836 | – | – | – | – | –
44 | NVPLHGTILTRPLLE | 8 | 263 | 263 | – | – | – | – | –
45 | LMDLEGKQGNFKNLR | 36 | 347 | 1386 | – | – | – | – | –
46 | ILLNKHIDAYKTFPP | 42 | 483 | 2416 | – | – | – | – | –
47 | YFTSDYYQLYSTQLS | 8 | 198 | 198 | – | – | – | – | –
48 | RENNRVVISSDVLVN | 33 | 170 | 170 | – | – | – | – | –
49 | RLWLCWKCRSKNPLL | 7 | 290 | 290 | – | – | – | – | –
50 | TRRIRGGDGKMKDLS | 8 | 151 | 151 | – | – | – | – | –
51 | AVMSLKEGQINDMIL | 33 | 104 | 104 | – | – | – | – | –
52 | FGDQELIRQGTDYKH | 8 | 281 | 281 | – | – | – | – | –

Row | Sequence | Frequency of response (%) [1] [%] | Magnitude by # of responding donors [2] | Sum of response [3] | Frequency of response (%) [4] [%] | Sum of response [5] | Frequency of response (%) | Magnitude by # of responding donors | Sum of response
53 | HCANFNVLFSTVFPP | 7 | 211 | 211 | – | – | – | – | –
54 | KVTFFPDLNGDVVAI [SEQ ID NO 257] | – | 147 | – | 15 | 293 | – | – | –
55 | KEGQINDMILSLLSK | 33 | 391 | 391 | – | – | – | – | –
56 | SWFTALTQHGKEDLK | 23 | 1088 | 3265 | – | – | – | – | –
57 | DFLEYHDVRVVLDFI | 18 | 341 | 681 | – | – | – | – | –
58 | LGVYYHKNNKSWMES | 9 | 259 | 259 | – | – | – | – | –
59 | VIRGDEVRQIAPGQT | 9 | 180 | 180 | – | – | – | – | –
60 | TFGGPSDSTGSNQNG | 6 | 291 | 291 | – | – | – | – | –
61 | GSSGVVNPVMEPIYD | 7 | 186 | 186 | – | – | – | – | –
62 | IVRFPNITNLCPFGE | – | 107 | – | 9 | 107 | – | – | –
63 | AAEASKKPRQKRTAT | 23 | 179 | 537 | – | – | – | – | –
64 | QFAPSASAFFGMSRI | 17 | 191 | 381 | – | – | – | – | –
65 | AIKLDDKDPNFKDQV | 8 | 585 | 585 | – | – | – | – | –
66 | TDEMIAQYTSALLAG | 9 | 745 | 745 | – | – | – | – | –
67 | YCIDGALLTKSSEYK | 7 | 119 | 119 | – | – | – | – | –
68 | RRGPEQTQGNFGDQE | 8 | 518 | 518 | – | – | – | – | –
69 | CVADYSVLYNSASFS | 8 | 210 | 210 | – | – | – | – | –
70 | LNQLTGYKKPASREL | 8 | 168 | 168 | – | – | – | – | –
71 | FSNSGSDVLYQPPQT | 8 | 149 | 149 | – | – | – | – | –
72 | KKRWQLALSKGVHFV [SEQ ID NO 250] | – | 144 | – | 18 | 287 | – | – | –
73 | FGTTLDSKTQSLLIV | 9 | 174 | 174 | – | – | – | – | –
74 | EKSNIIRGWIFGTTL | 9 | 299 | 299 | – | – | – | – | –
75 | PSGTWLTYTGAIKLD [SEQ ID NO 248] | – | – | – | – | – | 42 | 517 | 2583
76 | TRSMWSFNPETNILL | 17 | 205 | 410 | – | – | – | – | –
